Test results as given in US20070037833A1, “Compositions and methods for inhibiting neurodegeneration” (priority 2005, published 2007).

B1: BDNF: brain-derived neurotrophic factor, activates the receptor tyrosine kinase TrkB (protein, UniProt P23560 19-247, looked up)
Neurotrophic factor BDNF …: APMKEANIRGQGGLAYPGVRTHGTLESVNGPKAGSRGLTSLADTFEHVIEELLDEDQKVRPNEENNKDADLYTSRVMLSSQVPLEPPLLFLLEEYKNYLDAANMSMRVRRHSDPARRGELSVCDSISEWVTAADKKTAVDMSGGTVTVLEKVPVSKGQLKQYFYETKCNPMGYTKEGCRGIDKRHWNSQCRTTQSYVRALTMDSKKRIGWRFIRIDTSCVCTLTIKRGR

Experiments:
[1] = tested on: pure motor neurons grown in CT-1; test: BDNF-conferred excitotoxic sensitivity of pure motor neurons after cholesterol depletion; type: cell-based; conditions: for excitotoxic cell death: acute BMCD or vehicle followed by BDNF or vehicle, then kainate
Method: (§1) Finally to begin to determine the biological relevance of the lipid raft signaling complex, we asked if their disruption with cholesterol depleting agents would affect the capacity of BDNF to confer excitotoxic sensitivity upon motor neurons. Pure motor neurons were grown in the presence of CT-1 but in the absence of BDNF for 24 hours at which point the cholesterol depleting agent, β-methylcyclodextin (βMCD) or vehicle was added to the cultures. Thirty minutes later, BDNF or vehicle was added to the culture and 3 hours later the excitoticity assay was performed (FIG. 6b). We determined the amount of cholesterol in our pure motor neuron cultures after 30 minutes of βMCD treatment and found an ˜25% reduction in comparison with vehicle treatment (βMCD v. vehicle; 404±31 μg/μg protein versus 550±16 μg/μg protein, n=5 samples, t-test, p<0.001). In terms of cell death, a statistically significant difference between experimental groups was identified by ANOVA (F(5,42)=32.797; P<0.001) and a post hoc analysis (Scheffé with level of significance set at P<0.05) indicated excitotoxic death only occurred in the (+)BDNF/(−)βMCD treatment group (# of motor neurons exposed to vehicle or kainate; 57±7 versus 40±4).

motor neurons = test: Cholesterol content of pure motor neuron cultures (Amplex Red Cholesterol Assay); type: cell-based, rat; conditions: after 30 minutes of treatment
Method: Two hundred thousand motor neurons were plated in wells of a 96 well dish and after 24 hrs. treated with βMCD or vehicle. Thirty minutes later cholesterol content was determined using the Amplex® Red Cholesterol Assay kit (Molecular Probes) according to the manufacturers instructions. All determinations were made in quintuplicate and normalized to protein content (determined using Protein Assay kit (Bio-Rad)).
as §1, with “In terms of cell death, a statistically significant difference between experimental groups was identified by ANOVA (F(5,42)=32.797; P<0.001) and a post hoc analysis (Scheffé with level of significance set at P<0.05) indicated excitotoxic death only occurred in the (+)BDNF/(−)βMCD treatment group (# of motor neurons exposed to vehicle or kainate; 57±7 versus 40±4).” left out

ALS patients = conditions: intrathecal 25 μg/day or 150 μg/day versus vehicle, 18 months; cited from earlier work

Molecule | # of motor neurons ([1]; (+)BDNF/(+)βMCD group, exposed to kainate) | # of motor neurons ([1]; (+)BDNF/(+)βMCD group, exposed to vehicle) | # of motor neurons ([1]; (−)BDNF/(+)βMCD group, exposed to kainate) | # of motor neurons ([1]; (−)BDNF/(+)βMCD group, exposed to vehicle) | toxicity to motor neurons ([1]; BMCD alone) | excitotoxic cell death [1] | reduction of cholesterol in comparison with vehicle (motor neurons) [%] | # of motor neurons ([1]; (+)BDNF/(−)βMCD group, exposed to kainate) | # of motor neurons ([1]; (+)BDNF/(−)βMCD group, exposed to vehicle) | survival rate (survival free of ventilatory support) (ALS patients)
β-methylcyclodextin [βMCD] | 51±5 | 58±4 | 60±5 | 60±3 | non-toxic | did not occur | ~25 |  |  | 
B1 |  |  |  |  |  | Excitotoxic cell death occurred |  | 40±4 | 57±7 | lower than in the placebo group
